Experimental data: publication PMC8802628, “Selective activation of PFKL suppresses the phagocytic oxidative burst” (Cell, 2021)
Entries after “also recorded” stand apart in the source; their conditions may differ.

Experiments:
recombinant NE = target: T1, recombinant NE (Homo sapiens, UniProt P08246); experiment: NE activity assay; assay type: biochemical
T1 construct: purchased Abcam ab91099
Description: NA-11 and LDC7559 were incubated at the indicated concentrations with 25 ng of recombinant NE for 20 min. NE activity was measured using a fluorescence NE activity assay kit (Abcam).

PMNs = experiment: ROS detection assay (ROS-Glo) in neutrophils; assay type: cell-based, human; conditions: for PMA-induced ROS production: 50 nM PMA
Description: ROS were measured using the ROS-Glo bioluminescent assay (Promega) for the direct detection of H2O2. Briefly, neutrophils (2 × 10^4) were plated in white 96-well plates (Greiner) in high glucose DMEM medium. Cells were cultured with DMSO vehicle, 0.5 μM NA-11, 5 μM LDC7559, 100 μM apocynin, or 200 μM thionicotinamide for 30 min, and then stimulated with 50 nM PMA or treated with 10 μg/mL zymosan beads, pre-opsonized in 20% serum for 30 min. Luminescence, after the addition of H2O2 substrate solution of 20 min, and then ROS-Glo detection solution for 20 min, was recorded on a plate reader (Envision).

PFK1 = PFK1 activity in PMN lysates; assay type: cell-based, human; conditions: for activation-induced reduction in PFK1 activity: neutrophils treated with PMA, LPS, or cholesterol crystals
Description: PFK1 activity assays from neutrophil lysates were modified from Abrantes et al., 2012. Briefly, neutrophils (10^7) were cultured with 0.5 μM NA-11 for 30 min, and then stimulated with 50 nM PMA, 5 μg/mL cholesterol crystals, 10 μg/mL LPS or 25 μM nigericin for 30 min. Cells were lysed in 10 mM PBS, 1% Triton X-100, and 1 x EDTA-free protease inhibitor cocktail on ice for 10 min. The soluble protein lysates were quantified by BCA assay (Pierce) and adjusted to 0.3125 mg/mL with lysis buffer. Lysate (80 μL) was mixed with 100 μL 2x enzyme cocktail solution (100 mM Tris-HCL pH7.4, 10 mM MgCl2, 0.5 mM ATP, 0.3 mM NADH, 1.35 units/mL Aldolase, 10 units/mL Triose phosphate isomerase, 4 units/mL glycerophosphate dehydrogenase, 20 mM ammonium sulfate) equilibrated to reach room temperature for 5 min. 20 μL of Fructose-6-phosphate (40 mM) was added and the reaction monitored for NADH decrease (absorbance at 340 nm) every 30 s for 30 min. Specific activity is in pmoles FBP per min per mg lysate.

T1 sequence (P08246 30-267): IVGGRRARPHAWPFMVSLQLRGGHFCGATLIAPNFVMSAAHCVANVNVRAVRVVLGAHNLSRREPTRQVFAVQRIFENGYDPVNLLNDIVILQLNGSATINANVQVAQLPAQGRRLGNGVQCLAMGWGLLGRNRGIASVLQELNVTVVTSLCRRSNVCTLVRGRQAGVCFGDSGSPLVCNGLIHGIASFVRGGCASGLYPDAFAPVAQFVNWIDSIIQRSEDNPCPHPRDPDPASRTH

| Structure (SMILES) | inhibition of recombinant NE (recombinant NE) | PMA-induced ROS production (PMNs) | activation-induced reduction in PFK1 activity (PFK1) | ROS production during phagocytosis of opsonized zymosan (PMNs; over 2 h) | effect on PFK1 activity in resting neutrophils (PFK1; resting neutrophils) |
| --- | --- | --- | --- | --- | --- |
| COc1ccccc1-c1cc2n(n1)Cc1ccc(NC(C)=O)cc1OC2 [LDC7559, reference compound] | neither LDC7559 nor NA-11 inhibited recombinant NE | inhibited PMA-induced ROS production | prevented |  |  |
| CC(=O)Nc1ccc2c(c1)OCc1cc(-c3ccccc3C#CCCCO)nn1C2 [NA-11] | neither LDC7559 nor NA-11 inhibited recombinant NE | inhibited PMA-induced ROS production; also recorded: markedly suppressed, but did not completely prevent, PMA-induced ROS | prevented | kept ROS production at basal levels | minimal |
